The source of these data is patent publication US10077261B2, “Imidazolin-5-one derivative useful as FASN inhibitors for the treatment of cancer” (Janssen Pharmaceutica NV, priority 2012, dated 2018).

The target in assay [1] is Fatty Acid Synthase Keto-reductase Domain (FASN KR) (Homo sapiens, UniProt P49327). As to the kind of experiment: Fatty Acid Synthase keto-reductase domain (FASN KR) inhibition, NADPH oxidation at 340 nm.
Experimental: After 20 minutes incubation at room temperature the plate was measured again (T2).
The decrease in absorbance was calculated as (Absorbance before incubation T1)−(Absorbance following incubation T2).
A plot of Controlmin versus test compound concentration was fitted to a 4-parameter logistic curve using a non-linear least squares regression method.
The subject of assay [2] is A2780 ovarian cells. The experiment in a line: A2780 ovarian cell proliferation assay in lipid reduced medium, without palmitate (MTT). In kind it is cell-based. As to conditions: Homo sapiens, A2780, 96 h; read-out: pIC50 A2780 Ovarian Cell, Without Palmitate (converted).
Assay [3] has as its system A2780 ovarian cells. The experiment in a line: A2780 ovarian cell proliferation assay in lipid reduced medium, with palmitate (MTT). In kind it is cell-based. As to conditions: Homo sapiens, A2780, 96 h; read-out: pIC50 A2780 Ovarian Cell, With Palmitate (converted). The method in brief:
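In this palmitate-supplemented format, compound dilutions (30 μM down to 0.01 μM) are added to cells in lipid-reduced serum with 25 μM palmitate, 0.2% fatty-acid-free BSA and 0.25% ethanol. After four days (96 h) MTT absorbance at 544 nm is recorded and fitted by minimum sum of squares.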

In assay [4] the target is T1, hFASN enzyme (full length) (Homo sapiens, UniProt P49327).
T1 construct: 10 μL hFASN enzyme (full length, 300 ng, purified in house); made in house
T1 sequence (P49327 whole entry): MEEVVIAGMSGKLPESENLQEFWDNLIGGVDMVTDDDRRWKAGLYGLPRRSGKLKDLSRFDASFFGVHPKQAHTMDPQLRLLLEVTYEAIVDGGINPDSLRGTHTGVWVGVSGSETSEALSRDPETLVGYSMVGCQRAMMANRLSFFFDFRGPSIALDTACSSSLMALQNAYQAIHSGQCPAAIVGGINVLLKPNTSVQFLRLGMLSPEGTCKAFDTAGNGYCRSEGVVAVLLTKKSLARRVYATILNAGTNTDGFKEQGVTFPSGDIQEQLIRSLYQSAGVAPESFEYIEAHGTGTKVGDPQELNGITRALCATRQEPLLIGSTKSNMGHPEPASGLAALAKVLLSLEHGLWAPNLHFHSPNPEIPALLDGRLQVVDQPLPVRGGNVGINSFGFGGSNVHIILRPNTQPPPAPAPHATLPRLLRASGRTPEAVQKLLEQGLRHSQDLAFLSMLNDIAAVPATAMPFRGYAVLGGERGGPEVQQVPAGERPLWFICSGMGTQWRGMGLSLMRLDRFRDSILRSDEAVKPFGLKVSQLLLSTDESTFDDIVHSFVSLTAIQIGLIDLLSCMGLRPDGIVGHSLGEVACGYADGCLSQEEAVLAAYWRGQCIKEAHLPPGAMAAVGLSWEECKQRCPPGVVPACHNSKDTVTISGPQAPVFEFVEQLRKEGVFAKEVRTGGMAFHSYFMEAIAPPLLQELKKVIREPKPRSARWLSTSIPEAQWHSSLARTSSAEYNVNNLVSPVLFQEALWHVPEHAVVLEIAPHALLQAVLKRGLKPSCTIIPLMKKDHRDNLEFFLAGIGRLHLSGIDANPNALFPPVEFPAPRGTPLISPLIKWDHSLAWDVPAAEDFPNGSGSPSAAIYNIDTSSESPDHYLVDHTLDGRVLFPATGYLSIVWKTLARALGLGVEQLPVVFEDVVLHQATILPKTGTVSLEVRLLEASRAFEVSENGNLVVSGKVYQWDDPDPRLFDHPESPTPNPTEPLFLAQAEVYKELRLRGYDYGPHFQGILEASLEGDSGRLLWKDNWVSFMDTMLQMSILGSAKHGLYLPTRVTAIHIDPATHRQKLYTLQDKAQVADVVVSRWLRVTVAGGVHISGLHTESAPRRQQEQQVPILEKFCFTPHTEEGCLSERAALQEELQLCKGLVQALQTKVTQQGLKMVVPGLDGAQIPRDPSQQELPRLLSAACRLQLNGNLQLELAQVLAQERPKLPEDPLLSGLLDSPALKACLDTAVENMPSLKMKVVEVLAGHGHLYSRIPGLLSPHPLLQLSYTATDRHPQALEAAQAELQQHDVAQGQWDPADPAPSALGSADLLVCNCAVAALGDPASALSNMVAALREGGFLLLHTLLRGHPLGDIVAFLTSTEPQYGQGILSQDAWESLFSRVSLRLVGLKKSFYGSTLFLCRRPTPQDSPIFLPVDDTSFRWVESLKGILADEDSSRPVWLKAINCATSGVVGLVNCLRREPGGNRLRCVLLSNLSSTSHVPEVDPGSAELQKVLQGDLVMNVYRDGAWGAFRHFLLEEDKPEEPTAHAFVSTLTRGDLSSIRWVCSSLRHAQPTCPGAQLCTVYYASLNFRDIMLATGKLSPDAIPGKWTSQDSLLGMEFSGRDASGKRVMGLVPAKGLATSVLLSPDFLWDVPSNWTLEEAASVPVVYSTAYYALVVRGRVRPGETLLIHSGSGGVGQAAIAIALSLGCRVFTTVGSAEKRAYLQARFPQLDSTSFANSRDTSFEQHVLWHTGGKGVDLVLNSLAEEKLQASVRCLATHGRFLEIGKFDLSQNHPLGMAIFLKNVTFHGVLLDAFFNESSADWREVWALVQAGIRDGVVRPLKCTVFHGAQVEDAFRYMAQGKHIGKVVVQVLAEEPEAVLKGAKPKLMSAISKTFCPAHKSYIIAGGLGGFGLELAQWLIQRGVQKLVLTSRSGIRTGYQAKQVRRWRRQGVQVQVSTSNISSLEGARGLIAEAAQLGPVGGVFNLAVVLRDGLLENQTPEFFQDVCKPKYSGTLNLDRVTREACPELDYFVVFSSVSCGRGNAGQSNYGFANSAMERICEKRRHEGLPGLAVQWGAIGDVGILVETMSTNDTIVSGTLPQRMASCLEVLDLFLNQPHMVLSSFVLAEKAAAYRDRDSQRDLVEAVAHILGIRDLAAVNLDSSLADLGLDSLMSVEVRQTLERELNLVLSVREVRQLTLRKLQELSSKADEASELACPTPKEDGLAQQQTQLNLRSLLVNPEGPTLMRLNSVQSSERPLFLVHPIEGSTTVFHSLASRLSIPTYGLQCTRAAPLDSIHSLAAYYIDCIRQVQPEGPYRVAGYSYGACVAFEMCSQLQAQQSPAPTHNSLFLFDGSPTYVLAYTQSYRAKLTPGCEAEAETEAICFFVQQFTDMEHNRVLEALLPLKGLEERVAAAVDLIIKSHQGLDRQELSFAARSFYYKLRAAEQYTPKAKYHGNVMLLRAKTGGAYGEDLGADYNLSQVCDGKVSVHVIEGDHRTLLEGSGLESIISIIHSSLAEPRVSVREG
The experiment in a line: Fatty Acid Synthase (FASN) inhibition scintillation proximity assay. In kind it is biochemical. As to conditions: for inhibition at 10 µM: read-out: Human FASN % inhibition @ 10 μM, 10 μM test compound; for IC50: read-out: Human FASN pIC50 (converted). The method in brief:
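Proximity read-out: hydrophobic ^3H-palmitate formed from ^3H-acetyl-CoA and malonyl-CoA binds streptavidin imaging beads, imaged at 610±20 nm at least 24 h after stopping. Enzyme was in-house purified full-length hFASN, 300 ng, in pH 7.5 phosphate/DTT buffer; compound series 30 μM down to 0.01 μM, normalized to controls, 4-parameter fit.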
In general terms: In a scintillation proximity assay essentially only radioactivity close to the scintillant gives light.

What is called inhibition is the change of the read-out against control, counted positive when it falls.

Fatty Acid Synthase Keto-reductase Domain (FASN KR), sequence (P49327 whole entry, the tested form may be a part): as the sequence (P49327 whole entry) above

As for `N#Cc1ccc(-c2ccc(C3=NC4(CCCC4)C(=O)N3C[C@@H]3CCN(C(=O)C4CC4)C3)cc2)cc1` [compound 1, 4′-(3-{[(3R)-1-(Cyclopropylcarbonyl)pyrrolidin-3-yl]methyl}-4-oxo-1,3-diazaspiro[4.4]non-1-en-2-yl)biphenyl-4-carbonitrile], the IC50 in assay [1] is 759 nM; in the assay with A2780 ovarian cells [2], 1120 nM; with A2780 ovarian cells [3], > 10000 nM; in assay [4], 575 nM. The inhibition at 10 µM in assay [4] worked out at 93%.
Regarding `O=C(C1CC1)N1CC[C@@H](CN2C(=O)C3(CCCC3)N=C2c2ccc(-c3ccc4[nH]ccc4c3)cc2)C1` [compound 4, 3-{[(3R)-1-(Cyclopropylcarbonyl)pyrrolidin-3-yl]methyl}-2-[4-(1H-indol-5-yl)phenyl]-1,3-diazaspiro[4.4]non-1-en-4-one], the IC50 is 45.7 nM in assay [1], 58.9 nM with A2780 ovarian cells [2], 5130 nM with A2780 ovarian cells [3] and 33.9 nM in assay [4]. In addition, the inhibition at 10 µM in assay [4] stood at 103%.
With `O=C(C1CC1)N1CCC(CN2C(=O)C3(CC3)N=C2c2ccc(-c3ccc4[nH]ccc4c3)cc2)CC1` [compound 10, 6-{[1-(Cyclopropylcarbonyl)piperidin-4-yl]methyl}-5-[4-(1H-indol-5-yl)phenyl]-4,6-diazaspiro[2.4]hept-4-en-7-one], the IC50 in assay [1] was 501 nM; in the assay on A2780 ovarian cells [2], 871 nM; with A2780 ovarian cells [3] it was > 10000 nM; in assay [4], 204 nM. The inhibition at 10 µM in assay [4] was 89.7%.
Regarding `O=C(C1CC1)N1CC[C@@H](CN2C(=O)C3(CCCC3)N=C2c2ccc(-c3ccc4ncccc4c3)cc2)C1` [compound 11, 3-{[(3R)-1-(Cyclopropylcarbonyl)pyrrolidin-3-yl]methyl}-2-(4-quinolin-6-ylphenyl)-1,3-diazaspiro[4.4]non-1-en-4-one], the IC50 in assay [1] is 2040 nM; with A2780 ovarian cells [2], ~3020 nM; in the assay on A2780 ovarian cells [3], > 10000 nM; in assay [4] it was 933 nM. Also, the inhibition at 10 µM in assay [4] came out at 82.2%.
As for `O=C(C1CC1)N1CC[C@@H](CN2C(=O)C3(CCCC3)N=C2c2ccc(-c3ccc4cnccc4c3)cc2)C1` [compound 12, 3-{[(3R)-1-(Cyclopropylcarbonyl)pyrrolidin-3-yl]methyl}-2-(4-isoquinolin-6-ylphenyl)-1,3-diazaspiro[4.4]non-1-en-4-one], the IC50 is 49 nM in assay [1], ~36.3 nM in the assay with A2780 ovarian cells [2], 3800 nM in the assay with A2780 ovarian cells [3] and 25.7 nM in assay [4]. Further, in assay [4], the inhibition at 10 µM was found to be 99.4%.
`COC(=O)N1CCC2(CC1)N=C(c1ccc(-c3ccc4occc4c3)cc1)N(C[C@@H]1CCN(C(=O)C3CC3)C1)C2=O` [compound 14, (R)-Methyl 2-(4-(benzofuran-5-yl)phenyl)-3-((1-(cyclopropanecarbonyl)pyrrolidin-3-yl)methyl)-4-oxo-1,3,8-triazaspiro[4.5]dec-1-ene-8-carboxylate]: the IC50 in assay [1] was 302 nM; in the assay with A2780 ovarian cells [2], 1230 nM; with A2780 ovarian cells [3], > 10000 nM; in assay [4], 148 nM. The inhibition at 10 µM in assay [4] was 98.2%.
For `COC(=O)N1CCC2(CC1)N=C(c1ccc(-c3ccc4[nH]ccc4c3)cc1)N(C[C@@H]1CCN(C(=O)C3CC3)C1)C2=O` [compound 15, Methyl 3-{[(3R)-1-(cyclopropylcarbonyl)pyrrolidin-3-yl]methyl}-2-[4-(1H-indol-5-yl)phenyl]-4-oxo-1,3,8-triazaspiro[4.5]dec-1-ene-8-carboxylate] the same measures were 70.8 nM, ~63.1 nM, > 10000 nM, 43.7 nM and 113%.
For `COC(=O)N1CCC2(CC1)N=C(c1ccc(-c3ccc4[nH]ccc4c3)cc1)N(CC1CN(C(=O)C3CC3)C1)C2=O` [compound 17, Methyl 3-{[1-(cyclopropylcarbonyl)azetidin-3-yl]methyl}-2-[4-(1H-indol-5-yl)phenyl]-4-oxo-1,3,8-triazaspiro[4.5]dec-1-ene-8-carboxylate], the IC50 in assay [1] is 347 nM; in the assay on A2780 ovarian cells [2] it was 398 nM; in the assay on A2780 ovarian cells [3], > 10000 nM; in assay [4], 229 nM. In addition, the inhibition at 10 µM in assay [4] stood at 97%.
On the same counts, the results for `O=C(C1CC1)N1CCC(CN2C(=O)C3(CC3)N=C2c2ccc(-c3ccc4cnccc4c3)cc2)CC1` [compound 20, 6-{[1-(Cyclopropylcarbonyl)piperidin-4-yl]methyl}-5-(4-isoquinolin-6-ylphenyl)-4,6-diazaspiro[2.4]hept-4-en-7-one] are 676 nM, 646 nM, 8130 nM, 158 nM and 101%.
On the same counts, the results for `Cn1ncc2ccc(-c3ccc(C4=NC5(CC5)C(=O)N4C[C@@H]4CCN(C(=O)C5CC5)C4)cc3)cc21` [compound 27, 6-{[(3R)-1-(Cyclopropylcarbonyl)pyrrolidin-3-yl]methyl}-5-[4-(1-methyl-1H-indazol-6-yl)phenyl]-4,6-diazaspiro[2.4]hept-4-en-7-one] are 120 nM, 251 nM, > 10000 nM, 70.8 nM and 100%.
Take `O=C(C1CC1)N1CCC(CN2C(=O)C3(CC3)N=C2c2ccc(-c3ccc4[nH]ncc4c3)cc2)CC1` [compound 29, 6-{[1-(Cyclopropylcarbonyl)piperidin-4-yl]methyl}-5-[4-(1H-indazol-5-yl)phenyl]-4,6-diazaspiro[2.4]hept-4-en-7-one]: the IC50 in assay [1] is 2340 nM; in the assay on A2780 ovarian cells [2], 3390 nM; in the assay on A2780 ovarian cells [3] it was > 10000 nM; in assay [4], 933 nM. For the same compound, the inhibition at 10 µM in assay [4] amounted to 81.7%.
Consider `O=C(C1CC1)N1CC[C@@H](CN2C(=O)C3(CC3)N=C2c2ccc(-c3ccc4ccncc4c3)cc2)C1` [compound 30, 6-{[(3R)-1-(Cyclopropylcarbonyl)pyrrolidin-3-yl]methyl}-5-(4-isoquinolin-7-ylphenyl)-4,6-diazaspiro[2.4]hept-4-en-7-one], for which the IC50 in assay [1] is 282 nM; in the assay with A2780 ovarian cells [2], 380 nM; with A2780 ovarian cells [3], > 10000 nM; in assay [4] it was 57.5 nM. Besides, the inhibition at 10 µM in assay [4] was found to be 108%.
In the case of `O=C(C1CC1)N1CC[C@@H](CN2C(=O)C3(CC3)N=C2c2ccc(-c3ccc4[nH]ccc4c3)cc2)C1` [compound 31, 6-{[(3R)-1-(Cyclopropylcarbonyl)pyrrolidin-3-yl]methyl}-5-[4-(1H-indol-5-yl)phenyl]-4,6-diazaspiro[2.4]hept-4-en-7-one], the IC50 in assay [1] is 35.5 nM; in the assay with A2780 ovarian cells [2] it was 28.8 nM; with A2780 ovarian cells [3] it was > 10000 nM; in assay [4] it was 21.9 nM. Besides, in assay [4], the inhibition at 10 µM was 107%.
For the compound `O=C(C1CC1)N1CC[C@@H](CN2C(=O)C3(CCCC3)N=C2c2ccc(-c3ccc4cc[nH]c4c3)cc2)C1` [compound 33, 3-{[(3R)-1-(Cyclopropylcarbonyl)pyrrolidin-3-yl]methyl}-2-[4-(1H-indol-6-yl)phenyl]-1,3-diazaspiro[4.4]non-1-en-4-one], the IC50 in assay [1] was 56.2 nM; with A2780 ovarian cells [2], 251 nM; in the assay with A2780 ovarian cells [3], > 10000 nM; in assay [4] it was 25.7 nM. Further, the inhibition at 10 µM in assay [4] was found to be 109%.
For `Cn1ncc2ccc(-c3ccc(C4=NC5(CCCC5)C(=O)N4C[C@@H]4CCN(C(=O)C5CC5)C4)cc3)cc21` [compound 34, 3-{[(3R)-1-(Cyclopropylcarbonyl)pyrrolidin-3-yl]methyl}-2-[4-(1-methyl-1H-indazol-6-yl)phenyl]-1,3-diazaspiro[4.4]non-1-en-4-one] the same measures were 355 nM, 776 nM, > 10000 nM, 117 nM and 102%.
Regarding `O=C(C1CC1)N1CC[C@@H](CN2C(=O)C3(CCCC3)N=C2c2ccc(-c3nc4ccccc4o3)cc2)C1` [compound 36, 2-[4-(1,3-Benzoxazol-2-yl)phenyl]-3-{[(3R)-1-(cyclopropylcarbonyl)pyrrolidin-3-yl]methyl}-1,3-diazaspiro[4.4]non-1-en-4-one], the IC50 in assay [1] is 1410 nM; with A2780 ovarian cells [2] it was 3470 nM; in the assay with A2780 ovarian cells [3] it was > 10000 nM; in assay [4], 550 nM. Also, in assay [4], the inhibition at 10 µM came out at 96.2%.
Turning to `COC(=O)N1CC2(C1)N=C(c1ccc(-c3ccc4occc4c3)cc1)N(C[C@@H]1CCN(C(=O)c3nccs3)C1)C2=O` [compound 957, (R)-methyl 6-(4-(benzofuran-5-yl)phenyl)-8-oxo-7-((1-(thiazole-2-carbonyl)pyrrolidin-3-yl)methyl)-2,5,7-triazaspiro[3.4]oct-5-ene-2-carboxylate], the IC50 (in the assay on A2780 ovarian cells [2]; in the assay with A2780 ovarian cells [3]; in assay [4]) was > 10000 nM each time. Moreover, the inhibition at 10 µM in assay [4] is 13%.
In the case of `COC(=O)N1CC[C@@H](CN2C(=O)C3(CN(C(=O)OC)C3)N=C2c2ccc(-c3ccc4cccnc4c3)cc2)C1` [compound 963, (S)-methyl 7-((1-(methoxycarbonyl)pyrrolidin-3-yl)methyl)-8-oxo-6-(4-(quinolin-7-yl)phenyl)-2,5,7-triazaspiro[3.4]oct-5-ene-2-carboxylate], the IC50 with A2780 ovarian cells [2] is > 10000 nM; in the assay on A2780 ovarian cells [3], > 10000 nM; in assay [4], ~10200 nM. For the same compound, the inhibition at 10 µM in assay [4] was determined as 62%.
